target: Fibroblast growth factor receptor 4 (Homo sapiens, UniProt P22455); assay: The reaction was stopped by the addition of 70 ul of Stop buffer (100 mM HEPES pH 7.5, 0.015% Brij 35, 35 mM EDTA and 0.2% of Coating Reagent 3 (Caliper Lifesciences)). The plate was then read on a Caliper LabChip EZ Reader II (protocol settings: −1.9 psi, upstream voltage −700, downstream Voltage -3000, post sample sip 35S).; type: biochemical
Sequence (P22455 whole entry): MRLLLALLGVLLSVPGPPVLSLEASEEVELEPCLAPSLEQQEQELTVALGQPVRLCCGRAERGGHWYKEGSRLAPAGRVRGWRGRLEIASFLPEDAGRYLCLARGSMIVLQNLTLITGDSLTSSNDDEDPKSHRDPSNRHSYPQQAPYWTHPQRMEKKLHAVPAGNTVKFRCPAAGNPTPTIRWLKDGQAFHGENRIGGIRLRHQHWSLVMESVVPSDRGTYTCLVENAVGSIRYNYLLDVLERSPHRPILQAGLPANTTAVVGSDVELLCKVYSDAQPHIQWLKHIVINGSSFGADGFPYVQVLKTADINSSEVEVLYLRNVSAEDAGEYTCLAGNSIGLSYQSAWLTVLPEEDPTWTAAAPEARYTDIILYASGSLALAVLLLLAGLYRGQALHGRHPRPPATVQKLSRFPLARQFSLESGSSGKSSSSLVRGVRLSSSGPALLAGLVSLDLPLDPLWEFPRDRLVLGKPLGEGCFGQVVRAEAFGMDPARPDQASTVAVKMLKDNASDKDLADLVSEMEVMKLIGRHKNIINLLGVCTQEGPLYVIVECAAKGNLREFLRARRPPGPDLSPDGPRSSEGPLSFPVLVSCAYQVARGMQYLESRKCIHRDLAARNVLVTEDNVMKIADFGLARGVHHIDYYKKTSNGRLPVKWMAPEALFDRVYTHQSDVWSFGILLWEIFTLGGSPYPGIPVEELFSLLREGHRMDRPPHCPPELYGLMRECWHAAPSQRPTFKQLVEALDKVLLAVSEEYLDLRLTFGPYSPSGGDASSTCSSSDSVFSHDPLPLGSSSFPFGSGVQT

SMILES | IC50 [µM]
C=CC(=O)N1CC(C)(C)Oc2ccc(-c3cc4c(cn3)cc(-c3c(Cl)c(OC)cc(OC)c3Cl)c(=O)n4CC)cc21 | < 0.01
C=CC(=O)N1CCc2ccc(-c3ncc4cc(-c5c(Cl)c(OC)cc(OC)c5Cl)c(=O)n(CC)c4n3)cc21 | < 0.01
C=CC(=O)Nc1cccc(-c2cc3c(cn2)cc(-c2c(Cl)c(OC)cc(OC)c2Cl)c(=O)n3C2CCCC2)c1 | < 0.01
C=CC(=O)Nc1ccccc1-c1cc2c(cn1)cc(-c1c(Cl)c(OC)cc(OC)c1Cl)c(=O)n2C1CCCC1 | < 0.01
C=CC(=O)Nc1ccccc1-c1ncc2cc(-c3c(Cl)c(OC)cc(OC)c3Cl)cc(OC)c2n1 | > 1

Reference: ChEMBL document CHEMBL5725308, “Inhibitors of the fibroblast growth factor receptor” (2017)
